From BindingDB's records for doi:10.1016/j.bmcl.2018.02.046 (AstraZeneca, 2018)

Biological target: Proprotein convertase subtilisin/kexin type 9 (Homo sapiens, UniProt Q8NBP7)
Assay: Inhibition of PCSK9 binding to LDLR in human HuH7 cells after 5 hrs by On-cell Western assay

Chain of Proprotein convertase subtilisin/kexin type 9 (Q8NBP7 31-152 limits assumed): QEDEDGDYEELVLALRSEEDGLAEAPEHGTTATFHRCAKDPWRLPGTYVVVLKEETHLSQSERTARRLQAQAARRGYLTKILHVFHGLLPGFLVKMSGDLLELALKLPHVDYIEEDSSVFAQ
Chain of Proprotein convertase subtilisin/kexin type 9 (Q8NBP7 153-692 limits assumed): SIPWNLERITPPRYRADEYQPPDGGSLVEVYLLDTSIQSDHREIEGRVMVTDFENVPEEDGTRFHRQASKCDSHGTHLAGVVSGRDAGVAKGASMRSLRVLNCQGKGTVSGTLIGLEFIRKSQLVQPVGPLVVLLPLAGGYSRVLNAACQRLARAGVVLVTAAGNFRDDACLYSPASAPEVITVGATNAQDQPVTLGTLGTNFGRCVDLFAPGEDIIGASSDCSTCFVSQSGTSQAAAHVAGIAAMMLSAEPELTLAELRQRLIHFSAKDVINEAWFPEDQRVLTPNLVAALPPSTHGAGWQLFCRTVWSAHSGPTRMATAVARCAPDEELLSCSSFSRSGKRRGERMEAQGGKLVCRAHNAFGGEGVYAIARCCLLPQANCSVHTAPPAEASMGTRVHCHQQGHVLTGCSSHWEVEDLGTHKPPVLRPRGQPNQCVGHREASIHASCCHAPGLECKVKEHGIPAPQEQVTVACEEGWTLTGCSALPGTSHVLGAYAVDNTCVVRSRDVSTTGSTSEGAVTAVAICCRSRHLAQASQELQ

IC50: 1600 nM
Substance: H-LILPKHSDAD-OH
